Tests used:
[1] = solubility and dissolution rate in aqueous media; assay type: physicochemical
Source text: Even at a lower pH of 1, the dissolution rate of (R)-2-amino-7-[4-fluoro-2-(6-methoxy-pyridin-2-yl)-phenyl]-4-methyl-7,8-dihydro-6H-pyrido[4,3-d]pyrimidin-5-one is too slow. The present inventors have discovered that, when (R)-2-amino-7-[4-fluoro-2-(6-methoxy-pyridin-2-yl)-phenyl]-4-methyl-7,8-dihydro-6H-pyrido[4,3-d]pyrimidin-5-one is in the presence of a surfactant or an acid, the problems of a low solubility and a slow dissolution rate are overcome, resulting in (R)-2-amino-7-[4-fluoro-2-(6-methoxy-pyridin-2-yl)-phenyl]-4-methyl-7,8-dihydro-6H-pyrido[4,3-d]pyrimidin-5-one being soluble in aqueous solution and a dissolution rate that is unexpectedly faster and higher.

[2] = particle size by laser light diffraction; assay type: physicochemical; conditions: micronized, screened through #25 screen
Source text: (R)-2-Amino-7-[4-fluoro-2-(6-methoxy-pyridin-2-yl)-phenyl]-4-methyl-7,8-dihydro-6H-pyrido[4,3-d]pyrimidin-5-one was micronized and screened through a #25 screen to a D average particle size of about 2 microns, with laser light diffraction yielding the following results: D(10) 0.78 μm, D(50) 2.18 μm, and D(90) 3.95 μm. The micronized (R)-2-amino-7-[4-fluoro-2-(6-methoxy-pyridin-2-yl)-phenyl]-4-methyl-7,8-dihydro-6H-pyrido[4,3-d]pyrimidin-5-one was then screened and added to a mixing bin along with the succinic acid and part A (50%) of the microcrystalline cellulose. The contents in the mixing bin were mixed for 150 revolutions, screened through a #40 screen and combine with a screened (#40 screen) mixture of AEROSIL 200, crospovidone, and the remaining other part B (50%) of the microcrystalline cellulose. This combination was mixed for 250 revolutions and screened through a #40 screen, and then combine with a first frozen and then milled mixture of vitamin E TPGS (screen no. 0063 using a Fitz mill) and magnesium stearate that was passed through at #30 mesh, to form a final combination, which was then blended together for 150 revolutions and encapsulated in a hard gelatin capsule using an encapsulation machine.

solubility ([1]; aqueous media with a pH above 3): very low solubility | dissolution rate ([1]; pH of 1): too slow | D(10) particle size [2]: 0.78 μm | D(50) particle size [2]: 2.18 μm | D(90) particle size [2]: 3.95 μm
Structure (SMILES): COc1cccc(-c2cc(F)ccc2[C@H]2Cc3nc(N)nc(C)c3C(=O)N2)n1 [(R)-2-amino-7-[4-fluoro-2-(6-methoxy-pyridin-2-yl)-phenyl]-4-methyl-7,8-dihydro-6H-pyrido[4,3-d]pyrimidin-5-one]

Source: patent US20110287069A1, “SOLID ORAL FORMULATIONS OF A PYRIDOPYRIMIDINONE” (priority 2009, published 2011)
